Tests used:
[1] = tested on: nephrotoxin-type nephritis; test: Therapeutic effect on nephrotoxin-type nephritis (modified type of Masugi nephritis), proteinuria level; assay type: in vivo; settings: rats
Experimental: (i) Preparation of anti-rat kidney rabbit serum.
The kidneys of SD male rats weighing about 250-300 g were sufficiently perfused with 0.9% saline. The renal cortical tissue was homogenized with 0.9% saline using a Teflon homogenizer. 4 ml of the homogenate was then suspended into the same volume of Freund's complete adjuvant. 2 ml of the said mixture was given subcutaneously to male rabbits weighing about 3 kg. 4 weeks later, 2 ml of the mixture was given intramuscularly as a booster. At the 5th week, a blood sample was taken. The serum separated by centrifugation at 3,000 rpm for 30 minutes was inactivated by heating at 56° C. for 30 minutes and preserved by freezing until just before use.
(ii) Induction of experimental nephritis (modified type of Masugi nephritis)
Experimental nephritis was induced in groups of 5 male rats weighing about 150-200 g by a single intravenous injection of 1 ml of the anti-kidney serum obtained in the above procedures.
(iii) Evaluation of anti-nephritic effect of drugs.
Drugs were given to a group of 5 rats once a day for 5 consecutive days from the 2nd day before the injection of anti-kidney serum. Each drug was dissolved into 3% sodium bicarbonate solution and given intraperitoneally in a volume of 1 ml/rat. In addition to the above drug-treated nephritic group, the non-treated-nephritic group (control) was set in the experiment. The proteinuria level (total) amount excreted into the urine over a 12 hour period) was measured using turbidometry employing bovine serum albumin as a control by means of sulfosalicylic acid.

[2] = tested on: complement serum (guinea pig complement); test: Anticomplementary activity (inhibition of hemolysis of sensitized erythrocytes); assay type: biochemical; settings: 50% hemolysis inhibition, 37° C.
Experimental: The anticomplementary activity of the test compound was measured according to the test method as described in Experimental Immunochemistry, edited by E. A. Kabat and M. M. Mayer, 2nd ed., Springfield, III: C. C. Thomas (1961) pages 133-240.
A mixture of 1 ml of a 5-fold diluted solution of a Veronal buffer solution containing 1.5×10^-4 M Ca^2+ and 5×10^-4 M Mg^2+ and isotonic gelatin, 1.5 ml of complement serum (guinea pig complement) diluted 400 times with a physiological saline solution and 0.05 ml of a solution of a test compound (in this case, a test compound was dissolved in a physiological saline solution) was incubated at 37° C. for 30 minutes. To the said mixture there was added 0.4 ml of sensitized erythrocytes suspension containing 5×10^8 cells/ml and said mixture was incubated at 37° C. further for 60 minutes. After the incubation, the mixture was centrifuged in 3,000 rpm at 4° C. for 10 minutes.
The results are expressed in Table 1 as the concentration of each drugs inhibiting the hemolysis activity by 50% (IC50).

[3] = 10 mg/kg intraperitoneally once a day for 5 days
[4] = 30 mg/kg intraperitoneally once a day for 5 days

With CCCCCCCCCCCCCCCC(=O)OC(CCCCCCCCCCCCCCC)CC(=O)NCC(=O)N[C@@H](CO)C(=O)O (stereo partly drawn) [Example 2, N-[N-(3-hexadecanoyloxyoctadecanoyl)glycyl]-L-serine] the “protein uria level, 1st day” value [1, 3] was 5.9 mg/12 hours, the “protein uria level, 4th day” value [1, 3] was 3.7 mg/12 hours and the “protein uria level, 7th day” value [1, 3] was 39.6 mg/12 hours. The “protein uria level, 1st day” value [1, 4] was 3.5 mg/12 hours, the “protein uria level, 4th day” value [1, 4] was 5.5 mg/12 hours and the “protein uria level, 7th day” value [1, 4] was 16.5 mg/12 hours. For the same compound, the “Anticomplementary Activity (IC50)” value [2] was 0.03 to 0.04 µg/mL.
